Test results published in patent publication US20260200831A1, “Plant Oil Ceramides, Synthesis Method and Use Thereof” (SHENZHEN DIKEMAN BIOTECHNOLOGY CO., LTD., priority 2022, published 2026).

How the values were obtained:
[1] = Cell migration (scratch) assay, skin barrier repair; type: cell-based; details: sample 100 mg/L
Method: Principle: When cells grow to form a confluent monolayer, a scratch tool is used to create a cell-free blank area on the confluent monolayer cells, the cells in the blank area are removed by a mechanical force, and through a period of incubation, the migration of the cells to the cell-free area is observed, and the migration ability of the cells is reflected by measuring the migration distance of the cells.
• 1. Marking the culture plate. Use a marker pen and ruler to draw evenly spaced horizontal lines (approximately 0.5-1 cm apart) on the back of a 6-well plate, ensuring at least 5 lines cross each well. Avoid thick lines. • 2. Cell seeding. Seed approximately 5×10^5 cells per well (the number varies for varied cells, adjusting based on cell growth rate), and the principle of inoculation is to achieve 100% confluence overnight. • 3. Cell scratching. On the following day, use a pipette tip perpendicular to the cell layer to create scratches along the pre-marked lines on the back of the plate (It is best to use the same tip for all wells). • 4. Cell washing. After the scratching was completed, rinse the cells three times with sterile PBS to remove dislodged cells, leaving a clear visible scratch gap, and then replace with fresh serum-free medium. • 5. Cell culturing and observation. […]

[2] = DPPH free radical scavenging assay
Method: DPPH is 1,1-diphenyl-2-picrylhydrazyl and can be used in antioxidant experiments.
Samples at corresponding concentrations (50, 100, 200, 400, 800 mg/L) were mixed with […] DPPH and absolute ethanol at a 1:1 volume ratio, respectively. DPPH and absolute ethanol were mixed at a 1:1 volume ratio, reacted at room temperature in the dark for 30 min, and the absorbance was measured at 517 nm. The absorbance of the sample mixed with DPPH is denoted as A1, the absorbance of the sample mixed with absolute ethanol is denoted as A2, and the absorbance of DPPH mixed with absolute ethanol is denoted as A3. The DPPH scavenging rate of the sample is calculated as [1−(A1−A2)/A3]×100%.

## CCCCCCCC/C=C\CCCCCCCC(=O)N[C@@H](CO)[C@H](O)[C@H](O)CCCCCCCCCCCCCC [ceramide 3B, oleic acid ceramide]
[1]
  healing rate after 24 h: 59.32%
[2]; 50 mg/L
  DPPH free radical scavenging rate: 7.76%
[2]; 100 mg/L
  DPPH free radical scavenging rate: 12.82%
[2]; 200 mg/L
  DPPH free radical scavenging rate: 24.10%
[2]; 400 mg/L
  DPPH free radical scavenging rate: 29.60%
[2]; 800 mg/L
  DPPH free radical scavenging rate: 33.16%
